Measured values published in ChEMBL document CHEMBL1144045, “Potent achiral agonists of the growth hormone secretagogue (ghrelin) receptor. Part 2: Lead optimisation” (Bioorg Med Chem Lett, 2008).

Key:
[1] = target: T1, Growth hormone secretagogue receptor type 1 (Homo sapiens, UniProt Q92847); experiment: Agonist activity at human GHSR1a by FLIPR assay relative to human ghrelin; assay type: functional
[2] = target: T1, Growth hormone secretagogue receptor type 1; experiment: Agonist activity at human GHSR1a by FLIPR assay; assay type: functional
[3] = Clearance in Sprague-Dawley rat at 1 mg/kg, iv; assay type: ADME, organism-based; set-up: dose 1 mg/kg, route intravenous; details: in vivo
[4] = Oral bioavailability in Sprague-Dawley rat at 3 mg/kg; assay type: ADME, organism-based; details: in vivo
[5] = target: 5-hydroxytryptamine receptor 1B (Homo sapiens, UniProt P28222); experiment: Binding affinity to 5HT1B receptor
[6] = Volume of distribution at steady state in Sprague-Dawley rat; assay type: ADME, organism-based; details: in vivo, read-out: Vdss
Rattus norvegicus = experiment: Effect on food intake in Sprague-Dawley rat at 3 mg/kg, po after 2 hrs; assay type: functional
[7] = Half life in Sprague-Dawley rat; assay type: ADME, organism-based; details: in vivo

T1 sequence (Q92847 whole entry): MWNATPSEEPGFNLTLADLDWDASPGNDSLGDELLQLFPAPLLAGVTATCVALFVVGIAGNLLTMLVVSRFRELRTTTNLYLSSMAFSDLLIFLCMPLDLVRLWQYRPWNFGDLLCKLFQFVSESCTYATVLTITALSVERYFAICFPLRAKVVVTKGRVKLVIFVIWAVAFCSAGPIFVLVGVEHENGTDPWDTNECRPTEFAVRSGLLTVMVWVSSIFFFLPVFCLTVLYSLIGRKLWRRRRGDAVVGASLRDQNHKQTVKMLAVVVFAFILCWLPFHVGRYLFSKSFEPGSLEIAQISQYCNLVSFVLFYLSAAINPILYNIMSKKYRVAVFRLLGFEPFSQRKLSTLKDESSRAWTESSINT
Chain of 5-hydroxytryptamine receptor 1B (P28222 whole entry): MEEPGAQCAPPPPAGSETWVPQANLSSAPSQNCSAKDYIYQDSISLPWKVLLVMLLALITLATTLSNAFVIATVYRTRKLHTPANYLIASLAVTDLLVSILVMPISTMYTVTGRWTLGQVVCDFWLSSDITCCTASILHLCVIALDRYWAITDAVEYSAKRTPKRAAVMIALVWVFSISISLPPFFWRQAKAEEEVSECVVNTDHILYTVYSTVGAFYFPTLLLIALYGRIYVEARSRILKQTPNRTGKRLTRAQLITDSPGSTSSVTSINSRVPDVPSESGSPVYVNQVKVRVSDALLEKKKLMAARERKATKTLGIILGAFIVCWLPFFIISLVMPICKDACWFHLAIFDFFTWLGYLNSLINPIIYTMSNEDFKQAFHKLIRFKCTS

COc1ccc(NS(=O)(=O)c2ccc(-c3ccccn3)s2)cc1N1C[C@@H](C)N[C@@H](C)C1
Intrinsic activity [1]: 0.9 | EC50 [2]: 15.8 nM

COc1ccc(N2C[C@@H](C)N[C@@H](C)C2)cc1NS(=O)(=O)c1ccc(-c2cnco2)s1
Intrinsic activity [1]: 0.9 | EC50 [2]: 2.51 nM

CC(C)Oc1ccc(N2C[C@@H](C)N[C@@H](C)C2)cc1NS(=O)(=O)c1ccc(-c2ccccn2)s1
Intrinsic activity [1]: 1.1 | EC50 [2]: 100 nM

COc1ccc(N2C[C@@H](C)N[C@@H](C)C2)cc1NS(=O)(=O)c1ccc(-c2ccc(C)o2)cc1
clearance [3]: 24 mL/min/kg | bioavailability [4]: 75% | Intrinsic activity [1]: 1 | Ki [5]: > 3160 nM | Vd [6]: 3.3 L/kg | Activity (Rattus norvegicus): 544% | EC50 [2]: 0.794 nM | half-life [7]: 1.9 h

COc1ccc(N2C[C@@H](C)N[C@@H](C)C2)cc1NS(=O)(=O)c1ccc(-c2cccs2)cc1Cl
Intrinsic activity [1]: 0.9 | EC50 [2]: 0.794 nM

COc1ccc(N2C[C@@H](C)N[C@@H](C)C2)cc1NS(=O)(=O)c1ccc(Br)cc1
Intrinsic activity [1]: 0.7 | EC50 [2]: 126 nM

COc1ccc(N2C[C@@H](C)N[C@@H](C)C2)cc1NS(=O)(=O)c1ccc(-c2ccccn2)s1
Intrinsic activity [1]: 1.1 | EC50 [2]: 10 nM

COc1cccc(-c2ccc(S(=O)(=O)Nc3cc(N4C[C@@H](C)N[C@@H](C)C4)ccc3OC)cc2)c1
Intrinsic activity [1]: 1 | EC50 [2]: 2 nM

C[C@@H]1CN(c2cccc(NS(=O)(=O)c3ccc(-c4ccccn4)s3)c2)C[C@H](C)N1
Intrinsic activity [1]: 0.8 | EC50 [2]: 39.8 nM

C[C@@H]1CN(c2ccc(C(=O)N(C)C)c(NS(=O)(=O)c3ccc(-c4ccccn4)s3)c2)C[C@H](C)N1
Intrinsic activity [1]: 0.9 | EC50 [2]: 794 nM

COc1ccc(N2C[C@@H](C)N[C@@H](C)C2)cc1NS(=O)(=O)c1ccc(-c2cncnc2)cc1
Intrinsic activity [1]: 0.6 | EC50 [2]: 316 nM

COc1ccc(N2C[C@@H](C)N[C@@H](C)C2)cc1NS(=O)(=O)c1ccc(-n2cccn2)cc1
Intrinsic activity [1]: 0.8 | EC50 [2]: 15.8 nM

COc1ccc(N2C[C@@H](C)N[C@@H](C)C2)cc1NS(=O)(=O)c1ccc(-c2ccco2)cc1
Intrinsic activity [1]: 0.9 | EC50 [2]: 3.98 nM

C[C@@H]1CN(c2cc(NS(=O)(=O)c3ccc(-c4ccccn4)s3)ccc2C#N)C[C@H](C)N1
Intrinsic activity [1]: 0.9 | EC50 [2]: 631 nM

C[C@@H]1CN(c2ccc(F)c(NS(=O)(=O)c3ccc(-c4ccccn4)s3)c2)C[C@H](C)N1
Intrinsic activity [1]: 0.8 | EC50 [2]: 100 nM

COc1ccc(N2C[C@@H](C)N[C@@H](C)C2)cc1NS(=O)(=O)c1ccc(-c2cc(Cl)ccc2F)cc1
Intrinsic activity [1]: 1 | EC50 [2]: 0.501 nM

COc1ccc(N2C[C@@H](C)N[C@@H](C)C2)cc1NS(=O)(=O)c1ccc(-c2ccncc2)cc1
Intrinsic activity [1]: 0.7 | EC50 [2]: 316 nM

COc1ccc(N2C[C@@H](C)N[C@@H](C)C2)cc1NS(=O)(=O)c1cccc(-c2ccco2)c1
Intrinsic activity [1]: 1 | EC50 [2]: 20 nM

C[C@@H]1CN(c2ccc(Cl)c(NS(=O)(=O)c3ccc(-c4ccccn4)s3)c2)C[C@H](C)N1
Intrinsic activity [1]: 1 | EC50 [2]: 39.8 nM

COc1ccc(N2C[C@@H](C)N[C@@H](C)C2)cc1NS(=O)(=O)c1ccc(Oc2ccccc2)cc1
Intrinsic activity [1]: 0.9 | EC50 [2]: 63.1 nM

COc1ccc(N2C[C@@H](C)N[C@@H](C)C2)cc1NS(=O)(=O)c1ccc(N2CCCC2=O)cc1
Intrinsic activity [1]: 0.8 | EC50 [2]: 39.8 nM

COc1ccc(F)c(-c2ccc(S(=O)(=O)Nc3cc(N4C[C@@H](C)N[C@@H](C)C4)ccc3OC)cc2)c1
Intrinsic activity [1]: 1.2 | EC50 [2]: 0.398 nM

COc1ccc(N2C[C@@H](C)N[C@@H](C)C2)cc1NS(=O)(=O)c1cccc(-c2ccccc2)c1
Intrinsic activity [1]: 1 | EC50 [2]: 158 nM

COc1ccc(N2C[C@@H](C)N[C@@H](C)C2)cc1NS(=O)(=O)c1ccc(-c2cccs2)cc1
clearance [3]: 26 mL/min/kg | bioavailability [4]: 74% | Intrinsic activity [1]: 1 | Ki [5]: > 3160 nM | Vd [6]: 1.6 L/kg | Activity (Rattus norvegicus): 292% | EC50 [2]: 3.98 nM | half-life [7]: 1 h

CCOc1ccc(N2C[C@@H](C)N[C@@H](C)C2)cc1NS(=O)(=O)c1ccc(-c2ccccn2)s1
Intrinsic activity [1]: 0.8 | EC50 [2]: 39.8 nM

COc1ccc(N2C[C@@H](C)N[C@@H](C)C2)cc1NS(=O)(=O)c1ccc(OCc2ccccc2)cc1
Intrinsic activity [1]: 0.8 | EC50 [2]: 100 nM

COc1ccc(N2C[C@@H](C)N[C@@H](C)C2)cc1NS(=O)(=O)c1ccc(-c2cccs2)cc1F
Intrinsic activity [1]: 0.9 | EC50 [2]: 2 nM

CC(=O)c1ccc(N2C[C@@H](C)N[C@@H](C)C2)cc1NS(=O)(=O)c1ccc(-c2ccccn2)s1
Intrinsic activity [1]: 0.9 | EC50 [2]: 39.8 nM

COc1ccc(N2C[C@@H](C)N[C@@H](C)C2)cc1NS(=O)(=O)c1ccc(-c2ccccc2)cc1
Intrinsic activity [1]: 1 | EC50 [2]: 6.31 nM
